Measured values taken from publication PMC7181660, “A novel specific PERK activator reduces toxicity and extends survival in Huntington's disease models” (Scientific Reports, 2020).

Key:
Experiment in all cases: biochemical
Type in all cases: biochemical
panel of 391 kinases [1] = biological target: panel of 391 kinases (Homo sapiens, UniProt O15075); conditions: DCAMKL1, MK-28 1 µM, ATP 1 µM
panel of 391 kinases [2] = biological target: panel of 391 kinases (Homo sapiens, UniProt O43293); conditions: kinase ZIPK/DAPK3, compound at 1 µM, single dose in duplicates, 1 µM ATP
panel of 391 kinases [3] = biological target: panel of 391 kinases (Homo sapiens, UniProt O75385); conditions: ULK1, MK-28 1 µM, ATP 1 µM
panel of 391 kinases [4] = biological target: panel of 391 kinases (Homo sapiens, UniProt P08922); conditions: ROS/ROS1, MK-28 1 µM, ATP 1 µM
panel of 391 kinases [5] = biological target: panel of 391 kinases (Homo sapiens, UniProt P19784); conditions: CK2a2, MK-28 1 µM, ATP 1 µM
panel of 391 kinases [6] = biological target: panel of 391 kinases (Homo sapiens, UniProt P28482); conditions: ERK2/MAPK1, MK-28 1 µM, ATP 1 µM
panel of 391 kinases [7] = biological target: panel of 391 kinases (Homo sapiens, UniProt P29322); conditions: EPHA8, MK-28 1 µM, ATP 1 µM
panel of 391 kinases [8] = biological target: panel of 391 kinases (Homo sapiens, UniProt P29376); conditions: TYK1/LTK, MK-28 1 µM, ATP 1 µM
panel of 391 kinases [9] = biological target: panel of 391 kinases (Homo sapiens, UniProt P32298); conditions: GRK4, MK-28 1 µM, ATP 1 µM
panel of 391 kinases [10] = biological target: panel of 391 kinases (Homo sapiens, UniProt P35626); conditions: GRK3, MK-28 1 µM, ATP 1 µM
panel of 391 kinases [11] = biological target: panel of 391 kinases (Homo sapiens, UniProt P42684); conditions: ABL2/ARG, MK-28 1 µM, ATP 1 µM
panel of 391 kinases [12] = biological target: panel of 391 kinases (Homo sapiens, UniProt Q15569); conditions: TESK1, MK-28 1 µM, ATP 1 µM
panel of 391 kinases [13] = biological target: panel of 391 kinases (Homo sapiens, UniProt Q16566); conditions: CAMK4, MK-28 1 µM, ATP 1 µM
panel of 391 kinases [14] = biological target: panel of 391 kinases (Homo sapiens, UniProt Q16584); conditions: MLK3/MAP3K11, MK-28 1 µM, ATP 1 µM
panel of 391 kinases [15] = biological target: panel of 391 kinases (Homo sapiens, UniProt Q56UN5); conditions: YSK4/MAP3K19, MK-28 1 µM, ATP 1 µM
panel of 391 kinases [16] = biological target: panel of 391 kinases (Homo sapiens, UniProt Q5S007); conditions: LRRK2, MK-28 1 µM, ATP 1 µM
panel of 391 kinases [17] = biological target: panel of 391 kinases (Homo sapiens, UniProt Q7L7X3); conditions: TAOK1, MK-28 1 µM, ATP 1 µM
panel of 391 kinases [18] = biological target: panel of 391 kinases (Homo sapiens, UniProt Q8IW41); conditions: MAPKAPK5/PRAK, MK-28 1 µM, ATP 1 µM
panel of 391 kinases [19] = biological target: panel of 391 kinases (Homo sapiens, UniProt Q8N752); conditions: CK1a1L, MK-28 1 µM, ATP 1 µM
panel of 391 kinases [20] = biological target: panel of 391 kinases (Homo sapiens, UniProt Q92918); conditions: HPK1/MAP4K1, MK-28 1 µM, ATP 1 µM
panel of 391 kinases [21] = biological target: panel of 391 kinases (Homo sapiens, UniProt Q9HAZ1); conditions: CLK4, MK-28 1 µM, ATP 1 µM
panel of 391 kinases [22] = biological target: panel of 391 kinases (Homo sapiens, UniProt Q9HC98); conditions: NEK6, MK-28 1 µM, ATP 1 µM
panel of 391 kinases [23] = biological target: panel of 391 kinases (Homo sapiens, UniProt Q9NRM7); conditions: LATS2, MK-28 1 µM, ATP 1 µM
panel of 391 kinases [24] = biological target: panel of 391 kinases (Homo sapiens, UniProt Q9UBE8); conditions: NLK, MK-28 1 µM, ATP 1 µM
panel of 391 kinases [25] = biological target: panel of 391 kinases (Homo sapiens, UniProt Q9UEW8); conditions: STK39/STLK3, MK-28 1 µM, ATP 1 µM
panel of 391 kinases [26] = biological target: panel of 391 kinases (Homo sapiens, UniProt Q9UL54); conditions: TAOK2/TAO1, MK-28 1 µM, ATP 1 µM
[27] = read-out: % Enzyme Activity (relative to DMSO controls)

## CN(/N=C\c1ccc(O)c(O)c1)c1nc(-c2ccccc2)cc(-c2ccccc2)n1 [MK-28]
Panel of 391 kinases [1]
  % Enzyme Activity (relative to DMSO controls): 110.18%
Panel of 391 kinases [1]; [27]
  remaining activity at 1 µM: 111%
Panel of 391 kinases [2]
  % Enzyme Activity (relative to DMSO controls): 79.41%
Panel of 391 kinases [2]; [27]
  remaining activity at 1 µM: 79.9%
Panel of 391 kinases [3]
  % Enzyme Activity (relative to DMSO controls): 97.64%
Panel of 391 kinases [3]; [27]
  remaining activity at 1 µM: 100%
Panel of 391 kinases [4]
  % Enzyme Activity (relative to DMSO controls): 99.57%
Panel of 391 kinases [4]; [27]
  remaining activity at 1 µM: 100%
Panel of 391 kinases [5]
  % Enzyme Activity (relative to DMSO controls): 73.33%
Panel of 391 kinases [5]; [27]
  remaining activity at 1 µM: 78%
Panel of 391 kinases [6]
  % Enzyme Activity (relative to DMSO controls): 105.81%
Panel of 391 kinases [6]; [27]
  remaining activity at 1 µM: 107%
Panel of 391 kinases [7]
  % Enzyme Activity (relative to DMSO controls): 98.42%
Panel of 391 kinases [7]; [27]
  remaining activity at 1 µM: 98.7%
Panel of 391 kinases [8]
  % Enzyme Activity (relative to DMSO controls): 82.78%
Panel of 391 kinases [8]; [27]
  remaining activity at 1 µM: 84.2%
Panel of 391 kinases [9]
  % Enzyme Activity (relative to DMSO controls): 97.72%
Panel of 391 kinases [9]; [27]
  remaining activity at 1 µM: 99.2%
Panel of 391 kinases [10]
  % Enzyme Activity (relative to DMSO controls): 99.99%
Panel of 391 kinases [10]; [27]
  remaining activity at 1 µM: 102%
Panel of 391 kinases [11]
  % Enzyme Activity (relative to DMSO controls): 99.46%
Panel of 391 kinases [11]; [27]
  remaining activity at 1 µM: 100%
Panel of 391 kinases [12]
  % Enzyme Activity (relative to DMSO controls): 66.57%
Panel of 391 kinases [12]; [27]
  remaining activity at 1 µM: 66.7%
Panel of 391 kinases [13]
  % Enzyme Activity (relative to DMSO controls): 99.67%
Panel of 391 kinases [13]; [27]
  remaining activity at 1 µM: 101%
Panel of 391 kinases [14]
  % Enzyme Activity (relative to DMSO controls): 162.84%
Panel of 391 kinases [14]; [27]
  remaining activity at 1 µM: 168%
Panel of 391 kinases [15]
  % Enzyme Activity (relative to DMSO controls): 104.21%
Panel of 391 kinases [15]; [27]
  remaining activity at 1 µM: 106%
Panel of 391 kinases [16]
  % Enzyme Activity (relative to DMSO controls): 90.69%
Panel of 391 kinases [16]; [27]
  remaining activity at 1 µM: 92.2%
Panel of 391 kinases [17]
  % Enzyme Activity (relative to DMSO controls): 103.55%
Panel of 391 kinases [17]; [27]
  remaining activity at 1 µM: 105%
Panel of 391 kinases [18]
  % Enzyme Activity (relative to DMSO controls): 77.52%
Panel of 391 kinases [18]; [27]
  remaining activity at 1 µM: 77.8%
Panel of 391 kinases [19]
  % Enzyme Activity (relative to DMSO controls): 99.36%
Panel of 391 kinases [19]; [27]
  remaining activity at 1 µM: 100%
Panel of 391 kinases [20]
  % Enzyme Activity (relative to DMSO controls): 114.23%
Panel of 391 kinases [20]; [27]
  remaining activity at 1 µM: 117%
Panel of 391 kinases [21]
  % Enzyme Activity (relative to DMSO controls): 105.55%
Panel of 391 kinases [21]; [27]
  remaining activity at 1 µM: 109%
Panel of 391 kinases [22]
  % Enzyme Activity (relative to DMSO controls): 99.56%
Panel of 391 kinases [22]; [27]
  remaining activity at 1 µM: 100%
Panel of 391 kinases [23]
  % Enzyme Activity (relative to DMSO controls): 84.83%
Panel of 391 kinases [23]; [27]
  remaining activity at 1 µM: 88.2%
Panel of 391 kinases [24]
  % Enzyme Activity (relative to DMSO controls): 99.19%
Panel of 391 kinases [24]; [27]
  remaining activity at 1 µM: 105%
Panel of 391 kinases [25]
  % Enzyme Activity (relative to DMSO controls): 106.05%
Panel of 391 kinases [25]; [27]
  remaining activity at 1 µM: 108%
Panel of 391 kinases [26]
  % Enzyme Activity (relative to DMSO controls): 107.98%
Panel of 391 kinases [26]; [27]
  remaining activity at 1 µM: 111%
